Data as given in patent US6984659B2, “2-pyrrolidinone derivatives substituted at position 4 for reducing the extracellular glutamate level” (priority 1997, dated 2006).

Columns and labels:
[1] = system: mitochondrial KATP channels; assay: mitochondrial KATP channels, depression of the mitochondrial membrane potential; format: biochemical
Experimental: The mode of action of GBP-L and GBP was tested with regard to mitochondrial KATP channels (Szewczyk and Marban 1999). […] Effects of GBP-L on the mitochondrial membrane potential were already seen at 5 μM. […] Thus, the neuroprotective effect of GBP-L seems to be mediated predominantly through mitochondrial KATP channels.

[2] = system: Mice transgenic for exon 1 of the human HD gene (line R 6/2); assay: mouse model of Huntington's disease, walking on a balance beam; format: in vivo
Source text: Mice transgenic for exon 1 of the human HD gene (line R 6/2), carrying CAGn=115-156 expansions, develop pronounced neuronal intranuclear inclusions, containing the proteins huntington and ubiquitin prior to the characteristic neurological phenotype with bradykinesia and seizures corresponding to the juvenile type of HD (Davies et al. 1997). The life time of these mice is up to 17 weeks. It was investigated whether gabapentin (GBP) and its derivative gabapentin-lactam (GBP-L, Jehle et al. 2000), may exert neuroprotective effects by using a battery of behavioral tests selected to measure motor aspects of fore-and hindlimb coordination and balance. In a first series of experiments mice were treated with GBP-L (100 mg/kg*day, 8 mice) and vehicle only (B mice) from the 6th week of their life until death using Alzet pumps implanted subcutaneously and delivering the test compounds systemically and continuously for up to four weeks. Empty Alzet pumps were repeatedly replaced. Animals were tested twice weekly by walking on a balance beam (width: 5 and 14 mm, Carter et al. 1999) up to week 15.5. A second series of experiments involved mice again treated with GBP-L (100 mg/kg*clay, 7 mice) and mice treated with GBP (100 mg/kg*day, 8 mice) from the 6th week of their life until death with week 17 being the maximum endpoint. In addition, immunohistochemical studies, using a monoclonal mouse antibody raised against ubiquitin, were done to analyse areas of ubiquitinated nuclear inclusions in three brain regions (hippocampus, neocortex and striatum) in a blinded fashion in order to compare mice treated with GBP-L or GBP.
This effect (E), as measured by the time necessary to pass the balance beam, was evaluated in each single mouse according to the function E=be^a time, yielding individual graphs with parameter estimates for a and b. The area under the curve, representing the motor ability of an individual mouse, was weighted by the life of this mouse. For instance, the area under the curve of a mouse which died at week 12.5 was divided by the ratio 12.5/15.5 in order to allow for possibly different life times of the mice.
Note that the observation period of the second series of experiments was 17 instead of 15.5 weeks only in the first set. Accordingly, the weighting by the life time now used the divisor 17 Instead of 15.5.

[3] = system: extracellular glutamate level; assay: superfusion experiments on rat brain slices (striatum), glutamate in superfusate by HPLC; format: cell-based
Experimental: A solution of gabapentin (100 μM) in physiological buffer (composition below) with a pH of 7.4 was prepared and irradiated with ultraviolet light (260 and 330 nanometers) at 37° C. for two hours. As described in Kearney A. S. et al., International Journal of Pharmaceutics, 78 (1992), 25–34, this slowly produces the lactam 8-azaspiro[5,4]decan-9-one. Because of the slow reaction rate, a yield of about 1% is assumed in accordance with Kearney et al. (1992), which corresponds to a 1 μM solution.
The activity of this solution in reducing the extracellular glutamate level was shown by means of superfusion experiments on rat brain slices. Slices with a thickness of 350 μm from the rat striatum were used for this. In each case, two slices were employed in a superfusion chamber with an extremely small dead volume, about 100 μl. Physiological buffer (concentrations in mM: NaCl 121, KCl 1.8, CaCl2, 1.3, MgSO4 1.2, NaHCO3 25, […] 1.2, glucose 11, pH 7.4, 95% O2/5% CO2-saturated) is then passed over them at 37° C. After a preliminary perfusion, which serves in particular to remove tissue particles and amino acids released by the injury to the tissue, superfusate fractions are collected at a flow rate of 400 to 800 μl every five minutes. […] The superfusates obtained are filtered (0.45 μm pore size) and the amino acid concentrations are determined by HPLC. […]

[4] = system: electrically evoked release of [^3H]-NA; assay: electrically evoked release of [^3H]-NA from rat brain slices; format: cell-based; conditions: quasi-physiological release
Source text: (§1) Note that the deviations indicate confidence intervals (CI95), not standard errors. In this model, GBP and its lactam seem equipotent. GBP and GBP-L are ineffective on the quasi-physiological, electrically evoked release of [^3H]-NA from both rat and human brain slices (not shown).

[5] = system: electrically evoked release of [^3H]-NA; assay: electrically evoked release of [^3H]-NA from human brain slices; format: cell-based; conditions: quasi-physiological release
Source text: as §1

[6] = second series, 100 mg/kg*day, observation period 17 weeks

Row | Compound | activity at mitochondrial KATP channels (in words) [1] | mean weighted area representing the motor ability on the 5 mm beam [2, 6] | mean weighted area representing the motor ability on the 14 mm beam [2, 6] | difference in glutamate between treated and comparative samples ([3]; gabapentin solution (100 μM) not irradiated, no lactam) | electrically evoked release of [^3H]-NA (in words) [4] | electrically evoked release of [^3H]-NA (in words) [5] | concentration at which effects on the mitochondrial membrane potential were already seen [1] [µM] | EC50 ([1]; read-out: half-maximal depression of the mitochondrial membrane potential) [µM] | motor abilities compared to vehicle animals (in words) ([2]; first series, 100 mg/kg*day) | mean weighted area representing the motor ability on the 5 mm beam ([2]; first series, 100 mg/kg*day s.c. Alzet pumps from 6th week, up to week 15.5, vehicle 44.60) | mean weighted area representing the motor ability on the 14 mm beam ([2]; first series, 100 mg/kg*day, up to week 15.5, vehicle 31.54) | extracellular glutamate concentration found in superfusate ([3]; rat striatum slices flushed with approximately 1 μM solution, control tests 0.24 μM) [µM]
1 | NCC1(CC(=O)O)CCCCC1 [GBP, gabapentin, reference compound] | hardly effective | 77.33 | 65.71 | no difference could be found | ineffective | ineffective |  |  |  |  |  | 
2 | O=C1CC2(CCCCC2)CN1 [GBP-L, 8-azaspiro[5,4]decan-9-one] | potent activator | 43.75 | 30.46 |  | ineffective | ineffective | 5 | 85 | markedly and significantly improved | 26.64 | 17.16 | 0.12
